Where a SMILES comes first, the peptide text is derived from it. The star is where a group is joined. Cbz = O=C(OCc1ccccc1)*; CH2F = FC*
B1: TRAIL: TNF-related apoptosis-inducing ligand; used as mouse iz-TRAIL (protein, UniProt P50592 39-291, looked up)
extracellular domain: YMYFTNEMKQLQDNYSKIGLACFSKTDEDFWDSTDGEILNRPCLQVKRQLYQLIEEVTLRTFQDTISTVPEKQLSTPPLPRGGRPQKVAAHITGITRRSNSALIPISKDGKTLGQKIESWESSRKGHSFLNHVLFRNGELVIEQEGLYYIYSQTYFRFQEAEDASKMVSKDKVRTKQLVQYIYKYTSYPDPIVLMKSARNSCWSRDAEYGLYSIYQGGLFELKKNDRIFVSVTNEHLMDLDQEASFFGAFLIN
modifications: extracellular domain isoleucine zipper fusion

Tests used:
[1] = tested on: PMKs derived from Hoip^E-KO mice; test: Viability of primary murine keratinocytes (PMKs) from Hoip^E-KO mice cultured with inhibitors, CellTiter-Glo assay; assay type: cell-based, mouse; settings: no exogenous stimulus, cultured four days with 20 μM Z-VAD-fmk, 10 μM Necrostatin-1s or 1 μM RIPK3 inhibitor (FIG. 3e)
From the text: FIG. 3. Aberrant apoptosis drives lethal dermatitis in Hoip^E-KO and Hoil-1^E-KO mice. a, Quantification of TUNEL and CC3 positive cells in skin sections from mice with the indicated genotypes (n=3 mice per genotype). Error bars represent mean values±s.e.m. *P≤0.05, **P≤0.01, ***P≤0.001. b, Representative images of skin sections from mice with the indicated genotypes (n=4) stained with antibody against CD45 (red) at P0. Nuclei were stained with DAPI (blue). White dashed lines separate the epidermis (above) from the dermis (below). Scale bar, 50 μm. c, Flow cytometry analysis of immune cells in skin samples from mice with the indicated genotypes at the indicated postnatal days. […] Lysates and IP were analysed by Western blotting for the indicated proteins. e, PMKs derived from Hoip^E-KO and control mice were cultured for four days in absence (NT: not-treated) or presence of the inhibitors Necrostatin-1s (N), ZVAD-fmk (Z) or RIPK3i. Cell viability (%) was measured by CellTiter-Glo assay on day four. […] CC3: cleaved Caspase-3. f, Cell viability (%) measured by CellTiter-Glo assay of PMKs derived from adult mice with the indicated genotypes. Results are expressed as mean values±SEM (n=8 mice per genotype). […] CC3: cleaved Caspase-3. i, Quantification of TUNEL and CC3 positive cells in skin sections from mice with the indicated genotypes (n=3 mice per genotype). […]

[2] = tested on: PMKs derived from Tnfr1^KO;Hoil-1^E-KO mice; test: Viability of PMKs from Tnfr1^KO;Hoil-1^E-KO mice after death ligand / Poly(I:C) stimulation, CellTiter-Glo assay; assay type: cell-based, mouse; settings: 24 hours; TRAIL 50 ng/ml, CD95L 50 ng/ml, Poly(I:C) 100 μg/ml; control = Tnfr1^KO PMKs with HOIL-1 (FIG. 4a)
Protocol: FIG. 4. CD95L- and TRAIL-induced cell death drives TNFR1-independent dermatitis. a, PMKs derived from adult mice with the indicated genotypes were treated or not for 24 hours with TRAIL [50 ng/ml], CD95L [50 ng/ml] and Poly(I:C) [100 μg/ml]. Cell viability (%) was measured by CellTiter-Glo assay. Results are expressed as mean values±SEM. (n=7 mice per genotype). **p≤0.01, ***p≤0.001, NS=not significant. Control mice represent a pool of Tnfr1^KO;Hoil-1^fl/fl;K14-Cre− and Tnfr1^KO;Hoil-1^fl/wt;K14-Cre+ mice b, Representative images of mice with the indicated genotypes. c, Severity score of dermatitis was assessed at P70 in mice with the indicated genotypes. The total score was determined by evaluating the regions of the body affected by the lesions (black) and the character of the lesion (white). Tnfr1^KO;Hoil-1^E-KO (n=6), Trail-r^KO;Tnfr1^KO;Hoil-1^E-KO (n=4), Tlr3^KO;Tnfr1^KO;Hoil-1^E-KO (n=4), Cd95^E-DD; Tnfr1^KO; Hoil-1^E-KO (n=12), Trail-r^KO; Tlr3^KO;Tnfr1^KO;Hoil-1^E-KO (n=20) and Cd95^E-DD;Trail-r^KO;Tnfr1^KO;Hoil-1^E-KO (n=19), Mlkl^KO;Tnfr1^KO;Hoip^E-KO (n=13). d, Kaplan-Meier survival curve of mice with the indicated genotypes. […]
Isolation, culture and viability of primary murine keratinocytes. […] On the last day, cell viability was measured using the CellTiter-Glo Luminescent Cell Viability Assay kit (Promega) following the manufacturers instructions. […]

Row | Molecule | loss in viability of HOIP-deficient PMKs (cell viability, CellTiter-Glo) [1] | cell viability as compared to control PMKs (CellTiter-Glo) [2]
1 | COC(=O)C[C@H](NC(=O)[C@H](C)NC(=O)[C@@H](NC(=O)OCc1ccccc1)C(C)C)C(=O)CF [ZVAD, Z-VAD-fmk] (Cbz-Val-Ala-Asp(OMe)-CH2F) | prevented | –
2 | CN1C(=O)NC(Cc2c[nH]c3c(Cl)cccc23)C1=O (stereo not shown) [necrostatin-1s, Necrostatin-1s] | prevented | –
3 | Polyinosinic:polycytidylic acid [Poly(I:C)] | – | decreased cell viability
4 | B1 | – | decreased cell viability

— patent publication US20210046101A1, “COMBINATION THERAPEUTICS” (UCL BUSINESS LTD, priority 2018, published 2021)
